From paper PMC3660081 (Annals of Oncology, 2013)
Entries after “also recorded” stand apart in the source; their conditions may differ. Each block holds one molecule with its values, some of them ahead of it.

Legend:
[1] = Pharmacokinetics of chemotherapy components before; conditions: for Effect of regorafenib on pharmacokinetics/exposure, in words: cycle 2 versus cycle 1; for Cmax in cycle 2 versus cycle 1, in words: following regorafenib dosing
[2] = Drug-related treatment-emergent adverse events; assay type: in vivo, human; conditions: for Administration interrupted (omitted) / Dose reduction due to adverse events: % of administered cycles
[3] = cited from earlier work
[4] = tested on: colorectal cancer after progression on standard therapy; conditions: versus best supportive care 5.0 months; cited from earlier work
UGT1A1 = conditions: cited from earlier work
[5] = tested on: heavily pretreated colorectal cancer; conditions: single-agent regorafenib; cited from earlier work
UGT1A9 = conditions: cited from earlier work
[6] = Cycle 1 day 1, before regorafenib dosing
[7] = Cycle 2 day 1, after regorafenib dosing
[8] = after versus before regorafenib dosing

SMILES: CCc1c2c(nc3ccc(O)cc13)-c1cc3c(c(=O)n1C2)COC(=O)[C@]3(O)CC [SN-38]
AUC, geometric mean [1, 6]: 400 ng·h/mL
t½, geometric mean [1, 6]: 16.8 h
AUC, geometric mean [1, 7]: 500 ng·h/mL
t½, geometric mean [1, 7]: 19.3 h
AUC ratio (90% CI) Cycle 2/Cycle 1 [1, 8]: 1.44
Cmax ratio (90% CI) Cycle 2/Cycle 1 [1, 8]: 0.91 (0.55–1.50)
Effect of regorafenib on pharmacokinetics/exposure, in words [1]: increased exposure; also recorded: increased significantly
Cmax in cycle 2 versus cycle 1, in words [1]: unchanged

AUC ratio (90% CI) Cycle 2/Cycle 1 [1, 8]: 1.28
Cmax ratio (90% CI) Cycle 2/Cycle 1 [1, 8]: 1.22 (0.80–1.85)
Cmax in cycle 2 versus cycle 1, in words [1]: only slightly increased
AUC ([1]; human, in vivo, geometric mean, Cycle 1 day 1, before regorafenib dosing): 10700 ng·h/mL
AUC ([1]; human, in vivo, geometric mean, Cycle 2 day 1, after regorafenib dosing): 13800 ng·h/mL
Cmax ([1]; human, in vivo, Cmax, geometric mean, Cycle 1 day 1, before regorafenib dosing): 1900 ng/mL
SMILES: CCc1c2c(nc3ccc(OC(=O)N4CCC(N5CCCCC5)CC4)cc13)-c1cc3c(c(=O)n1C2)COC(=O)[C@]3(O)CC [Irinotecan, irinotecan]
Administration interrupted (omitted) [2]: 5%
Dose reduction due to adverse events [2]: 12%
Effect of regorafenib on pharmacokinetics/exposure, in words [1]: increased exposure; also recorded: increased significantly

SMILES: NC(=O)c1cc(Oc2ccc(NC(=O)Nc3ccc(Cl)c(C(F)(F)F)c3)c(F)c2)cc[n+]1[O-] [M5]
Half-life [3]: 51 to 64 h

SMILES: CNC(=O)c1cc(Oc2ccc(NC(=O)Nc3ccc(Cl)c(C(F)(F)F)c3)c(F)c2)ccn1 [Regorafenib]
Half-life [3]: 25 h
Overall survival (OS) [4]: 6.4 months
Inhibition of UGT1A1, in words (UGT1A1): strong inhibitor
Tolerability in combination with chemotherapy (FOLFOX or FOLFIRI), in words ([2]; regorafenib 160 mg once daily days 4–10 and 18–24): acceptable tolerability
Stable disease [5]: 19 of 27
Inhibition of UGT1A9, in words (UGT1A9): strong inhibitor

SMILES: CNC(=O)c1cc(Oc2ccc(NC(=O)Nc3ccc(Cl)c(C(F)(F)F)c3)c(F)c2)cc[n+]1[O-] [M2]
Half-life [3]: 26 to 28 h

Cmax ratio (90% CI) Cycle 2/Cycle 1 ([1]; FOLFIRI regimen): 0.92 (0.06–13.9)
t½, geometric mean ([1]; FOLFIRI regimen, Cycle 1, before regorafenib dosing): 0.2 H
AUC ratio (90% CI) Cycle 2/Cycle 1 ([1]; FOLFOX regimen): 1.06 (0.69–1.64)
Cmax ratio (90% CI) Cycle 2/Cycle 1 ([1]; FOLFOX regimen): 0.89 (0.50–1.61)
t½, geometric mean ([1]; FOLFOX regimen, Cycle 1, before regorafenib dosing): 0.4 H
t½, geometric mean ([1]; FOLFOX regimen, Cycle 2, after regorafenib dosing): 2.4 H
Effect of regorafenib on pharmacokinetics/exposure, in words [1]: no significant effect
SMILES: O=c1[nH]cc(F)c(=O)[nH]1 [5-fluorouracil]
Administration interrupted (omitted) [2]: 8%
Dose reduction due to adverse events [2]: 18%

SMILES: O=C1[O][Pt]2([NH][C@@H]3CCCC[C@H]3[NH]2)[O]C1=O [Oxaliplatin, oxaliplatin]
Administration interrupted (omitted) [2]: 11%
Dose reduction due to adverse events [2]: 11%
Effect of regorafenib on pharmacokinetics/exposure, in words [1]: no significant effect
